Legend:
human GPR52 = human GPR52 (Homo sapiens (Human), UniProt Q9Y2T5); experiment: HTRF assay for direct cAMP measurement; type: cell-based; conditions: CHO-K1 cells stably expressing recombinant human GPR52, mean EC50
Method: HTRF cAMP assays were performed using commercially available assay kits according to the manufacturer's instructions (cAMP Dynamic 2 Assay Kit; #62AM4PEJ, Cisbio Bioassays, Bedford, MA). An aliquot of CHO-K1 cells stably expressing recombinant human GPR52 was thawed and resuspended in cell buffer (1×PBS (w/o Ca^2+/Mg^2+)) at a density of 4×10^5 cells per mL. Test compounds were solubilized in DMSO to 10 mM stock solutions and serially diluted in DMSO using 6-fold dilutions to generate 8-point dose response curves. These serially diluted samples were then diluted 1:50 in compound dilution buffer (1×PBS (w/o Ca^2+/Mg^2+) containing 0.5 mM IBMX, 0.1% BSA) to achieve a 4× stock. The diluted compounds were transferred (5 μL per well) in duplicate to the 384-well assay plate (Optiplate #6007290, PerkinElmer, Waltham, MA). Both a positive (reference compound) and negative (non-stimulated vehicle) control was included in each assay run in column 23. The cell suspension was subsequently dispensed into the 384-well assay plates at 15 μL per well (6000 cells) such that the compound was diluted to 1×. […] After a one-hour incubation at room temperature, 10 μL of cAMP D2 reagent followed by 10 μL of cryptate reagent (provided in the Cisbio kit) was added to each well. Plates were then incubated at room temperature for one hour prior to reading. Time-resolved fluorescence measurements were collected on an EnVision® HTRF plate reader (PerkinElmer, Waltham, MA). Counts from the plate reader were fit to the cAMP standard curve included on each plate to determine the amount of cAMP in each test well. The % control was calculated based on the […]. Dose-response curves were generated from the cAMP data and analyzed using a nonlinear least squares curve-fitting program to obtain EC50 values.

human hepatocytes = experiment: Metabolic stability in human hepatocytes; type: in vitro ADME; conditions: human hepatocyte suspension, 1 μM; predicted hepatic clearance as percentage of hepatic blood flow
Method: The metabolic degradation of a test compound was assayed in a human hepatocyte suspension. After recovery from cryopreservation, human hepatocytes were diluted in Dulbecco's modified eagle medium (supplemented with 3.5 μg glucagon/500 mL, 2.5 mg insulin/500 mL, 3.75 mg hydrocortisone/500 mL, 5% human serum) to obtain a final cell density of 1.0×10^6 cells/mL or 4.0×10^6 cells/mL, depending on the metabolic turnover rate of the test compound.
Following a 30 minutes preincubation in a cell culture incubator (37° C., 10% CO2), test compound solution was spiked into the hepatocyte suspension, resulting in a final test compound concentration of 1 μM and a final DMSO concentration of 0.05% (v/v).
The cell suspension was incubated at 37° C. (cell culture incubator, horizontal shaker) and samples were removed from the incubation after 0, 0.5, 1, 2, 4 and 6 hours. Samples were quenched with acetonitrile (containing internal standard) and pelleted by centrifugation. The supernatant was transferred to a 96-deepwell plate, and prepared for analysis of decline of parent compound by HPLC-MS/MS.
The percentage of remaining test compound was calculated using the peak area ratio (test compound/internal standard) of each incubation time point relative to the time point 0 peak area ratio. The log-transformed data were plotted versus incubation time, and the absolute value of the slope obtained by linear regression analysis was used to estimate in vitro half-life (T1/2).
In vitro intrinsic clearance (CLint) was calculated from in vitro T1/2 and scaled to whole liver using a hepatocellularity of 120×10^6 cells/g liver, a human liver per body weight of 25.7 g liver/kg as well as in vitro incubation parameters, applying the following equation: CL_[…]_IN VIVO[mL/min/kg]=(CL_[…][μL/min/10^6 cells]×hepatocellularity[10^6 cells/g liver]×liver factor[g/kg body weight])/1000
Hepatic in vivo blood clearance (CL) was predicted according to the well-stirred liver model considering an average liver blood flow (QH) of 20.7 mL/min/kg: CL[mL/min/kg]=CL_[…]_IN VIVO[mL/min/kg]×hepatic blood flow[mL/min/kg]/(CL_[…]_IN VIVO[mL/min/kg]+hepatic blood flow[mL/min/kg])
Results were expressed as percentage of hepatic blood flow: QH[%]=CL[mL/min/kg]/hepatic blood flow[mL/min/kg])

hERG channel = hERG channel (Homo sapiens (Human), UniProt Q12809); experiment: hERG channel assay (whole-cell patch clamp); type: cell-based; conditions: HEK293 cells stably transfected with hERG cDNA
From the text: hERG Channel inhibition of compounds of the present invention was investigated as follows:
HEK (human embryonic kidney) 293 cells were stably transfected with hERG cDNA. Cells determined for use in patch clamp experiments were cultivated without antibiotic.
Cells were superfused with a bath solution containing (mM): NaCl (137), KCl (4.0), MgCl2 (1.0), CaCl2(1.8), Glucose (10), HEPES (10), pH 7.4 with NaOH. Patch pipettes were made from borosilicate glass tubing using a pipette and filled with pipette solution containing (mM): K-aspartate (130), MgCl2(5.0), EGTA (5.0), K2ATP (4.0), HEPES (10.0), pH 7.2 with KOH. Resistance of the microelectrodes was typically in the range between 2 MΩ and 5 MΩ.
Membrane currents were recorded using an EPC-10 patch clamp amplifier (HEKA Electronics, Lambrecht, FRG) and PatchMaster software (HEKA). hERG-mediated membrane currents were recorded at typically 28° C., using the whole-cell configuration of the patch-clamp technique. Transfected HEK293 cells were clamped at a holding potential of −60 mV and hERG-mediated inactivating tail currents were elicited using a pulse pattern with fixed amplitudes (activation/inactivation: 40 mV for 2000 ms; recovery: 120 mV for 2 ms; ramp to 40 mV in 2 ms; inactivating tail current: 40 mV for 50 ms) repeated at 15 s intervals. During each inter-pulse interval 4 pulses scaled down by a factor of 0.2 were recorded for a P/n leak subtraction procedure. Rs compensation was employed up to a level that safely allows recording devoid of ringing. The remaining uncompensated Rs was recorded as well as actual temperature and holding current.
The concentrations of the test item were applied sequentially on each of the different cells investigated. A steady state level of baseline current was measured for at least 5 sweeps prior to the application of the first test article concentration. The test item was dissolved in DMSO to yield a stock solution of 1000-fold the highest final concentration. This stock was diluted further in DMSO to stock solutions of 1000-fold the remaining final concentrations. Final dilutions in extracellular buffer were prepared freshly from these stocks by a 1:1000 dilution step each before starting the experiments.
Peak current amplitudes were measured 3 ms after the ramp to +40 mV. For baseline and each concentration, the peak currents of the three last sweeps before application of the next concentration were averaged. Residual currents (I/I0) were calculated for each cell as the fraction of actual average peak current and average baseline peak current. Current inhibition was expressed as […]. Current inhibition for all cells was reported as mean ±SD. If possible, from mean current inhibition data the IC50 was estimated based on the Hill equation using a least squares procedure.

human plasma proteins = experiment: Human plasma protein binding assay (equilibrium dialysis); type: in vitro ADME; conditions: 1 μM, 2 hours, 37° C.
Method: Equilibrium dialysis (ED) technique was used to determine the approximate in vitro fractional binding of test compounds to plasma proteins. Dianorm Teflon dialysis cells (micro 0.2) were used. Each dialysis cell consists of a donor and an acceptor chamber, separated by an ultrathin semipermeable membrane with a 5 kDa molecular weight cut-off. Stock solutions for each test compound were prepared in DMSO at 1 mM and serially diluted to obtain a final test concentration of 1 μM. The subsequent dialysis solutions were prepared in plasma (supplemented with NaEDTA as anticoagulant), and aliquots of 200 μL test compound dialysis solution in plasma were dispensed into the donor (plasma) chambers. Aliquots of 200 μL dialysis buffer (100 mM potassium phosphate, pH 7.4) were dispensed into the buffer (acceptor) chamber. Incubation was carried out for 2 hours under rotation at 37° C. for establishing equilibrium.
At the end of the dialysis period, aliquots obtained from donor and acceptor chambers, respectively, were transferred into reaction tubes, spiked with Internal Standard solution and processed for HPLC-MS/MS analysis. Analyte concentrations were quantified in aliquots of samples by HPLC-MS/MS against external calibration curves.
Percent bound was calculated using the formula: % bound=(plasma concentration−buffer concentration/plasma concentration)×100

hERG channel, sequence (Q12809 whole entry): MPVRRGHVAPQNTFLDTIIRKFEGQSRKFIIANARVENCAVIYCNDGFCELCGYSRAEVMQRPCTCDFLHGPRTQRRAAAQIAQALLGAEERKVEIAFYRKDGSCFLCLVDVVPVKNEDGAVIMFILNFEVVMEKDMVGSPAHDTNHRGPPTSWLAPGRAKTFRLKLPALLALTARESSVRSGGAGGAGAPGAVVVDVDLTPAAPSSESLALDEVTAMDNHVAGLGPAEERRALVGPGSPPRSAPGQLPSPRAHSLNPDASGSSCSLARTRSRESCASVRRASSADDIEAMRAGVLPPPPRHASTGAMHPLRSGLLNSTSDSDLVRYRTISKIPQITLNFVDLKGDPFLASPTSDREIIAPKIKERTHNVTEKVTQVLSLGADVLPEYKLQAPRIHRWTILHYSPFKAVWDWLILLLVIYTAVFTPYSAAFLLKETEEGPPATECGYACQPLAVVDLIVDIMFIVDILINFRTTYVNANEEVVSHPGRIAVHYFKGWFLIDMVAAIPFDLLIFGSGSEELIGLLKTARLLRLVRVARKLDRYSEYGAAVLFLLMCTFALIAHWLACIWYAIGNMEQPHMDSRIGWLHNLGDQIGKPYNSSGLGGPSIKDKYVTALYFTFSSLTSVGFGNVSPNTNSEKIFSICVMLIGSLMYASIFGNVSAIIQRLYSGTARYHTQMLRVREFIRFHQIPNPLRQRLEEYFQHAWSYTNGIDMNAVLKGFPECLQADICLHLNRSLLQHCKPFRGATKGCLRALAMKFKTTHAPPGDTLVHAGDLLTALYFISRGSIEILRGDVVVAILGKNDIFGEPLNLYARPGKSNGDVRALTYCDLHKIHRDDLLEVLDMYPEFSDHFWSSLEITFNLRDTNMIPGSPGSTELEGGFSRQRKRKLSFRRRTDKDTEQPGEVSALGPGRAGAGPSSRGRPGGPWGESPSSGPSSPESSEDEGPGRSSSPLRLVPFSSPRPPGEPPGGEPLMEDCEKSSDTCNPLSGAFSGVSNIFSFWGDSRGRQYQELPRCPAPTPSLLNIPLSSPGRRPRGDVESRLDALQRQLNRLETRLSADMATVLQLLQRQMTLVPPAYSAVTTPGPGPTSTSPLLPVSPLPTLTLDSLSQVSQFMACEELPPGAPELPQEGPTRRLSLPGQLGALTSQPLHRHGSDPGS
human GPR52, sequence (Q9Y2T5 whole entry): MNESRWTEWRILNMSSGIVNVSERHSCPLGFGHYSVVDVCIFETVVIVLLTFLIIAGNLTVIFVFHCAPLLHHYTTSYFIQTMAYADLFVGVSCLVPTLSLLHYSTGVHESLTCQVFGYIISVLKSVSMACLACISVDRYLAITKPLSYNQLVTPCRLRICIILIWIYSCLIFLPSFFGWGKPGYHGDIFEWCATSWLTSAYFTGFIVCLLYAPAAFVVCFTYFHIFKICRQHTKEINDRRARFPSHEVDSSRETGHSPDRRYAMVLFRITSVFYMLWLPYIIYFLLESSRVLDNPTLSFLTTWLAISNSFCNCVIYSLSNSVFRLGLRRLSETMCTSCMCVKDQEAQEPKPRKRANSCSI

Row | Structure (SMILES) | EC50 (human GPR52) [µM] | Human HepStab (human hepatocytes) [% QH] | Hu PPB (human plasma proteins) [% bound] | IC50 (hERG channel) [µM]
1 | CC(=O)N1CC(NC(=O)c2nccnc2N2CC(Oc3cc(F)cc(OC(F)F)c3)C2)C(F)(F)C1 (racemic) [Example 7] | 0.102 | 15.4 |  | 
2 | CC(=O)N1CCC(NC(=O)c2nsnc2N2CC(Oc3ccc(F)c(F)c3)C2)C1 (single isomer, unassigned) [Example 16b] | 0.21 |  |  | > 10
3 | CC(=O)N1CC2(NC(=O)c3nsnc3N3CC(Oc4cc(F)c(F)c(F)c4)C3)CC1C2 [Example 12] | 0.024 | 5.0 | 88.5 | > 10
4 | CC(=O)N1CC[C@H](NC(=O)c2nsnc2N2CC(Oc3cc(F)cc(F)c3)C2)C1 [Example 15b] | 0.168 |  |  | 
5 | [2H]C([2H])([2H])C(=O)N1CC(NC(=O)c2nccnc2N2CC(Oc3ccc(F)c(F)c3)C2)C(F)(F)C1 (racemic) [Example 4] | 0.018 | 8.5 | 79.2 | > 10
6 | CC(=O)N1CC(NC(=O)c2nccnc2N2CC(Oc3cc(F)cc(Cl)c3)C2)C(F)(F)C1 (racemic) [Example 5] | 0.027 | 17.0 | 93.2 | > 10
7 | CC(=O)N1CC(NC(=O)c2nccnc2N2CC(Oc3ccc(F)c(Cl)c3)C2)C(F)(F)C1 (racemic) [Example 1] | 0.015 | 11.1 | 92.6 | > 10

Now from value to molecule, other results behind:

Row | EC50 (human GPR52) [µM] | Human HepStab (human hepatocytes) [% QH] | Hu PPB (human plasma proteins) [% bound] | Structure (SMILES) | IC50 (hERG channel) [µM]
8 | 1.17 |  |  | CC(=O)N1CC(F)C(NC(=O)c2nsnc2N2CC(Oc3ccc(F)c(F)c3)C2)C1 (single isomer, unassigned) [Example 14a] | 
9 |  | <4.1 |  | CC(=O)N1CC(F)C(NC(=O)c2nsnc2N2CC(Oc3ccc(F)c(F)c3)C2)C1 (stereo not shown) [Example 14b] | 
10 | 0.019 | 5.8 | 93.4 | CS(=O)(=O)N1CC(NC(=O)c2nccnc2N2CC(Oc3cc(F)c(F)c(F)c3)C2)C(F)(F)C1 (racemic) [Example 9] | > 10
11 | 0.024 | 21.3 | 89.9 | CCC(=O)N1CC(NC(=O)c2nccnc2N2CC(Oc3ccc(F)c(F)c3)C2)C(F)(F)C1 (stereo not shown) [Example 2] | 6.6
12 | 0.054 | 4.8 | 87.8 | CC(=O)N1CC(NC(=O)c2nccnc2N2CC(Oc3cc(F)cc(C(F)F)c3)C2)C(F)(F)C1 (stereo not shown) [Example 6] | > 10
13 | 0.011 |  | 89.7 | CC(=O)N1CC(F)C(NC(=O)c2nsnc2N2CC(Oc3ccc(F)c(F)c3)C2)C1 (single isomer, unassigned) [Example 14b] | > 10
14 | 0.378 | 27.7 | 88.2 | O=C(NC1CNCC1(F)F)c1nccnc1N1CC(Oc2cc(F)c(F)c(F)c2)C1 (racemic) [Intermediate H-3] | 
15 | 1.33 |  |  | CC(=O)N1C[C@@H](NC(=O)c2nccnc2N2CC(Oc3cc(F)cc(F)c3)C2)C(F)(F)C1 [Example 10b] | 
16 | 0.011 | <4.1 | 86.2 | CC(=O)N1CCC(NC(=O)c2nsnc2N2CC(Oc3ccc(F)c(F)c3)C2)C1 (stereo not shown) [Example 16a] | > 10

Source: patent US12115157B2, “3-phenoxyazetidin-1-yl-heteroaryl pyrrolidine derivatives and the use thereof as medicament” (Boehringer Ingelheim International GmbH, priority 2021, dated 2024)
